# Experimental data as given in paper PMC6925188, “PBRM1 acts as a p53 lysine-acetylation reader to suppress renal tumor growth” (Nature Communications, 2019).
# Marks after values point to notes of the source that are not given here.
# What was measured:
# Format in all cases: cell-based
# [1] = tested on: endogenous PBRM1 and p53; test: Endogenous p53 immunoprecipitation, kidney cancer cell lines; conditions: ACHN, Caki-1 and Ren-01; 50 μM, 8 h
# Protocol: For endogenous p53 immunoprecipitations, cell pellets were lysed in EBC buffer with protease and phosphatase inhibitors, 2 μM TSA and 10 mM NAM. Lysates (approximately 2 mg of total protein) were incubated with 2 μg p53 antibody (DO-1) overnight at 4 °C followed by incubation with protein A/G plus Sepharose (sc-2003, Santa Cruz Biotechnology) for 2 h. Beads were washed with EBC buffer four times, mixed with 1X SDS loading buffer (1% mercaptoethanol, 0.01% Bromophenol blue, 6% Glycerol, 2% SDS, 50 mM Tris-Cl (pH 6.8)) and analyzed by SDS-PAGE and immunoblot.
# Supplementary Figure 1. Endogenous PBRM1 and p53 physically associate in kidney […]
# μM) for 8 h and harvested for immunoprecipitation with control IgG and p53 antibodies. The bound PBRM1 and p53 were examined by immunoblots. Source data are provided as a Source […]
# (1 picture or pasted object on this page, not shown here)
# [2] = tested on: RCC4 cells; test: RT-qPCR of p53 targets, RCC4 cells; design: CDKN1A expression / MDM2 expression / GADD45A expression / PUMA expression / NOXA expression: reference not given here; conditions: 24 h; for CDKN1A expression / GADD45A expression / MDM2 expression / NOXA expression / PUMA expression: 100 μM
# Protocol: (§1) Lysates were analyzed by immunoblots. c RCC4 cells with or without p53 KO were transfected with vector or Flag-PBRM1 at the indicated amounts. […] Cells were harvested for RT-qPCR (g) or ChIP followed by qPCR (h). […] Representative data is shown in i. Quantification of cell cycle phase is shown in j. Source data are provided as a Source Data file.
# Total RNA was extracted from cells using the RNeasy Plus Mini Kit (74136, Qiagen), and the concentration was measured using the NanoDrop ND-1000 system (Thermo Scientific). Reverse transcription was performed using the First Strand cDNA Synthesis Kit (NP100042, Origen) with 0.5 µg total RNA. Real-time PCR was performed with Maxima SYBR Green qPCR Master Mix (K0253, Thermo Scientific) using the Roche LightCycler 480. […] GAPDH was used as an internal control. Data are shown as mean ± SEM for three independent experiments.
# [3] = tested on: p53 binding to CDKN1A; test: ChIP-qPCR, p53 antibody, CDKN1A gene, RCC4 cells; design: p53 ChIP at CDKN1A-intron / p53 ChIP at CDKN1A-RE1 / p53 ChIP at CDKN1A-TSS: unit not given here; conditions: 24 h; for p53 ChIP at CDKN1A-RE1 / p53 ChIP at CDKN1A-TSS / p53 ChIP at CDKN1A-intron: 100 μM
# Protocol: as §1
# ChIP assays were performed with the Pierce Agarose ChIP Kit (26156, Thermo Scientific) according to the manufacturer’s instructions with minor revisions. In brief, samples were crosslinked with 1% paraformaldehyde and halted by 125 mM glycine. After washing twice with ice-cold PBS, cells were harvested and suspended in Lysis Buffer 1 and incubated on ice for 10 min. 1 × 10^7 nuclei were resuspended in 500 μl MNase Digestion Buffer containing 6.25 U Micrococcal Nuclease and incubated at 37 °C for 15 min. After the reaction was stopped, nuclei were pelleted by centrifugation and resuspended in 250 μl Lysis Buffer 2. Nuclei were sonicated at 10% amplitude for 10 s twice and incubated on ice for 30 min. After centrifugation, 50 μl supernatant containing the digested chromatin from 2 × 10^6 nuclei was diluted in 1× IP Dilution Buffer and incubated with antibodies (normal rabbit IgG for control, 1 μg FL393 + 1 μg DO-1 for p53 or 2 μg Flag M2 for Flag-PBRM1) overnight at 4 °C. […] of ChIP Grade Protein A/G Plus Agarose was added and incubated for 1 h at 4 °C. The agarose resins were washed once with IP Wash Buffer 1, twice with IP Wash Buffer 2 and once with IP Wash Buffer 3. 150 μl 1× IP Elution Buffer was added to the washed resin and incubated at 65 °C for 30 min with shaking. The eluate was treated with Proteinase K and DNA was extracted with columns provided in the kit.
structure (smiles),measurement,setting,value
COc1cc([C@@H]2c3cc4c(cc3[C@@H](O[C@@H]3O[C@@H]5CO[C@@H](C)O[C@H]5[C@H](O)[C@H]3O)[C@H]3COC(=O)[C@H]23)OCO4)cc(OC)c1O [Etoposide],endogenous PBRM1 associated with endogenous p53,[1],increased endogenous p53 associated with more endogenous PBRM1
same,expression of p53 downstream targets with PBRM1 restoration,"[2]; 100 μM etoposide, RCC4",up-regulated by restoration of PBRM1 but not PBRM1 BD4*
same,CDKN1A expression,"[2]; RCC4-GFP, assay 1",49.6546
same,GADD45A expression,"[2]; RCC4-GFP, assay 1",6.5687
same,MDM2 expression,"[2]; RCC4-GFP, assay 1",12.9102
same,NOXA expression,"[2]; RCC4-GFP, assay 1",7.6934
same,PUMA expression,"[2]; RCC4-GFP, assay 1",10.0905
same,CDKN1A expression,"[2]; RCC4-GFP, assay 2",44.3116
same,GADD45A expression,"[2]; RCC4-GFP, assay 2",5.0617
same,MDM2 expression,"[2]; RCC4-GFP, assay 2",12.821
same,NOXA expression,"[2]; RCC4-GFP, assay 2",9.2403
same,PUMA expression,"[2]; RCC4-GFP, assay 2",12.0208
same,CDKN1A expression,"[2]; RCC4-GFP, assay 3",55.0506
same,GADD45A expression,"[2]; RCC4-GFP, assay 3",5.7956
same,MDM2 expression,"[2]; RCC4-GFP, assay 3",12.4332
same,NOXA expression,"[2]; RCC4-GFP, assay 3",9.8148
same,PUMA expression,"[2]; RCC4-GFP, assay 3",9.8829
same,CDKN1A expression,"[2]; RCC4-PBRM1-BD4*, assay 1",45.9041
same,GADD45A expression,"[2]; RCC4-PBRM1-BD4*, assay 1",6.7644
same,MDM2 expression,"[2]; RCC4-PBRM1-BD4*, assay 1",11.4101
same,NOXA expression,"[2]; RCC4-PBRM1-BD4*, assay 1",9.833
same,PUMA expression,"[2]; RCC4-PBRM1-BD4*, assay 1",10.713
same,CDKN1A expression,"[2]; RCC4-PBRM1-BD4*, assay 2",43.4526
same,GADD45A expression,"[2]; RCC4-PBRM1-BD4*, assay 2",6.5588
same,MDM2 expression,"[2]; RCC4-PBRM1-BD4*, assay 2",13.589
same,NOXA expression,"[2]; RCC4-PBRM1-BD4*, assay 2",9.0815
same,PUMA expression,"[2]; RCC4-PBRM1-BD4*, assay 2",12.1902
same,CDKN1A expression,"[2]; RCC4-PBRM1-BD4*, assay 3",51.1258
same,GADD45A expression,"[2]; RCC4-PBRM1-BD4*, assay 3",6.6252
same,MDM2 expression,"[2]; RCC4-PBRM1-BD4*, assay 3",12.0244
same,NOXA expression,"[2]; RCC4-PBRM1-BD4*, assay 3",9.5044
same,PUMA expression,"[2]; RCC4-PBRM1-BD4*, assay 3",12.2164
same,CDKN1A expression,"[2]; RCC4-PBRM1, assay 1",70.754
same,GADD45A expression,"[2]; RCC4-PBRM1, assay 1",7.8588
same,MDM2 expression,"[2]; RCC4-PBRM1, assay 1",16.2786
same,NOXA expression,"[2]; RCC4-PBRM1, assay 1",11.5749
same,PUMA expression,"[2]; RCC4-PBRM1, assay 1",13.0108
same,CDKN1A expression,"[2]; RCC4-PBRM1, assay 2",72.9408
same,GADD45A expression,"[2]; RCC4-PBRM1, assay 2",6.8115
same,MDM2 expression,"[2]; RCC4-PBRM1, assay 2",15.8174
same,NOXA expression,"[2]; RCC4-PBRM1, assay 2",11.4155
same,PUMA expression,"[2]; RCC4-PBRM1, assay 2",15.9071
same,CDKN1A expression,"[2]; RCC4-PBRM1, assay 3",96.454
same,GADD45A expression,"[2]; RCC4-PBRM1, assay 3",7.8052
same,MDM2 expression,"[2]; RCC4-PBRM1, assay 3",16.0682
same,NOXA expression,"[2]; RCC4-PBRM1, assay 3",13.296
same,PUMA expression,"[2]; RCC4-PBRM1, assay 3",14.8041
same,p53 binding to CDKN1A RE1 with PBRM1,"[3]; 100 μM etoposide, RCC4",significantly enhanced by wild-type but not BD4* mutant PBRM1
same,p53 ChIP at CDKN1A-RE1,"[3]; RCC4-GFP, assay 1",1.555
same,p53 ChIP at CDKN1A-TSS,"[3]; RCC4-GFP, assay 1",0.1782
same,p53 ChIP at CDKN1A-intron,"[3]; RCC4-GFP, assay 1",0.077
same,p53 ChIP at CDKN1A-RE1,"[3]; RCC4-GFP, assay 2",1.8621
same,p53 ChIP at CDKN1A-TSS,"[3]; RCC4-GFP, assay 2",0.1891
same,p53 ChIP at CDKN1A-intron,"[3]; RCC4-GFP, assay 2",0.0504
same,p53 ChIP at CDKN1A-RE1,"[3]; RCC4-GFP, assay 3",1.9888
same,p53 ChIP at CDKN1A-TSS,"[3]; RCC4-GFP, assay 3",0.2677
same,p53 ChIP at CDKN1A-intron,"[3]; RCC4-GFP, assay 3",0.06
same,p53 ChIP at CDKN1A-RE1,"[3]; RCC4-PBRM1-BD4*, assay 1",1.5332
same,p53 ChIP at CDKN1A-TSS,"[3]; RCC4-PBRM1-BD4*, assay 1",0.1764
same,p53 ChIP at CDKN1A-intron,"[3]; RCC4-PBRM1-BD4*, assay 1",0.0801
same,p53 ChIP at CDKN1A-RE1,"[3]; RCC4-PBRM1-BD4*, assay 2",1.7924
same,p53 ChIP at CDKN1A-TSS,"[3]; RCC4-PBRM1-BD4*, assay 2",0.1865
same,p53 ChIP at CDKN1A-intron,"[3]; RCC4-PBRM1-BD4*, assay 2",0.0517
same,p53 ChIP at CDKN1A-RE1,"[3]; RCC4-PBRM1-BD4*, assay 3",1.8343
same,p53 ChIP at CDKN1A-TSS,"[3]; RCC4-PBRM1-BD4*, assay 3",0.221
same,p53 ChIP at CDKN1A-intron,"[3]; RCC4-PBRM1-BD4*, assay 3",0.0545
same,p53 ChIP at CDKN1A-RE1,"[3]; RCC4-PBRM1, assay 1",1.8428
same,p53 ChIP at CDKN1A-TSS,"[3]; RCC4-PBRM1, assay 1",0.2655
same,p53 ChIP at CDKN1A-intron,"[3]; RCC4-PBRM1, assay 1",0.0601
same,p53 ChIP at CDKN1A-RE1,"[3]; RCC4-PBRM1, assay 2",2.4571
same,p53 ChIP at CDKN1A-TSS,"[3]; RCC4-PBRM1, assay 2",0.2336
same,p53 ChIP at CDKN1A-intron,"[3]; RCC4-PBRM1, assay 2",0.0759
same,p53 ChIP at CDKN1A-RE1,"[3]; RCC4-PBRM1, assay 3",2.4942
same,p53 ChIP at CDKN1A-TSS,"[3]; RCC4-PBRM1, assay 3",0.2293
same,p53 ChIP at CDKN1A-intron,"[3]; RCC4-PBRM1, assay 3",0.0609
